Source: patent US7138361B2, “Herbicidal heterocycles” (E. I. du Pont de Nemours and Company, priority 2000, dated 2006)

Assays:
Assay type in all cases: in vivo
[1] = system: Surinam grass (Brachiaria decumbens); assay: Test C preemergence; details: for Plant response rating, Surinam grass: scale 0 to 100, 0 no effect, 100 complete control; for Plant response rating (0 to 100), Surinam grass: visual evaluation after 12 to 14 days
Excerpt: (§1) Seeds of plant species selected from bermudagrass (Cynodon dactylon), Surinam grass (Brachiaria decumbens), cocklebur (Xanthium strumarium), corn (Zea mays), crabgrass (Digitaria sanguinalis), woolly cupgrass (Eriochloa villosa), giant foxtail (Setaria faberii), goosegrass (Eleusine indica), johnsongrass (Sorghum halepense), kochia (Kochia scoparia), lambsquarters (Chenopodium album), morningglory (Ipomoea hederacea), yellow nutsedge (Cyperus esculentus), pigweed (Amaranthus retroflexus), common ragweed (Ambrosia elatior), soybean (Glycine max) and velvetleaf (Abutilon theophrasti) were planted and treated preemergence with test chemicals formulated in a non-phytotoxic solvent mixture which included a surfactant.
(§2) At the same time, plants selected from these crop and weed species and also winter barley (Hordeum vulgare), blackgrass (Alopecurus myosuroides), canary grass (Phalaris minor), chickweed (Stellaria media), downy brome (Bromus tectorum), green foxtail (Setaria viridis), Italian ryegrass (Lolium multiflorum), wheat (Triticum aestivum), wild oat (Avena fatua) and windgrass (Apera spica-venti) were treated with postemergence applications of some of the test chemicals formulated in the same manner. Plants ranged in height from 2 to 18 cm (1- to 4-leaf stage) for postemergence treatments. Plant species in the flooded paddy test consisted of rice (Oryza saliva), smallflower flatsedge (Cyperus difformis), duck salad (Heteranthera limosa) and barnyardgrass (Echinochloa crus-galli) grown to the 2-leaf stage for testing. Treated plants and controls were maintained in a greenhouse for 12 to 14 days, after which time all species were compared to controls and visually evaluated. Plant response ratings, summarized in Table C, are based on a scale of 0 to 100 where 0 is no effect and 100 is complete control. A dash (-) response means no test result.

[2] = system: goosegrass (Eleusine indica); assay: Test C preemergence; details: for Plant response rating, Goosegrass: scale 0 to 100, 0 no effect, 100 complete control; for Plant response rating (0 to 100), Goosegrass: visual evaluation after 12 to 14 days
Excerpt: as §1, §2

[3] = system: velvetleaf (Abutilon theophrasti); assay: Test C preemergence; details: preemergence; for Plant response rating, Velvetleaf: scale 0 to 100, 0 no effect, 100 complete control
Excerpt: as §1, §2

[4] = system: crabgrass (Digitaria sanguinalis); assay: Test C preemergence; details: for Plant response rating, Crabgrass: scale 0 to 100, 0 no effect, 100 complete control; for Plant response rating (0 to 100), Crabgrass: visual evaluation after 12 to 14 days
Excerpt: as §1, §2

[5] = system: cocklebur (Xanthium strumarium); assay: Test C preemergence; details: for Plant response rating, Cocklebur: scale 0 to 100, 0 no effect, 100 complete control; for Plant response rating (0 to 100), Cocklebur: visual evaluation after 12 to 14 days
Excerpt: as §1, §2

[6] = system: giant foxtail (Setaria faberii); assay: Test C preemergence; details: for Plant response rating, Foxtail, Giant: scale 0 to 100, 0 no effect, 100 complete control; for Plant response rating (0 to 100), Foxtail, Giant: visual evaluation after 12 to 14 days
Excerpt: as §1, §2

[7] = system: bermudagrass (Cynodon dactylon); assay: Test C preemergence; details: for Plant response rating, Bermudagrass: scale 0 to 100, 0 no effect, 100 complete control; for Plant response rating (0 to 100 where 0 is no effect and 100 is complete control), Bermudagrass: visual evaluation after 12 to 14 days
Excerpt: as §1, §2

[8] = system: common ragweed (Ambrosia elatior); assay: Test C preemergence; details: preemergence; for Plant response rating, Ragweed, Common: scale 0 to 100, 0 no effect, 100 complete control
Excerpt: as §1, §2

[9] = system: morningglory (Ipomoea hederacea); assay: Test C preemergence; details: for Plant response rating, Morningglory: scale 0 to 100, 0 no effect, 100 complete control
Excerpt: as §1, §2

[10] = system: Surinam grass (Brachiaria decumbens); assay: Test B preemergence
Procedure, shortened: (§3)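 Post-treatment, species sat 13–15 days under greenhouse conditions before visual scoring against controls, 0 (no effect) through 100 (complete control). Application preemergence to sown seeds or postemergence at 1- to 4-leaf stage, using a non-phytotoxic solvent/surfactant formulation.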

[11] = system: barnyardgrass (Echinochloa crus-galli); assay: Test B preemergence
Procedure, shortened: as §3

[12] = system: velvetleaf (Abutilon theophrasti); assay: Test B preemergence
Procedure, shortened: as §3

[13] = system: crabgrass (Digitaria sanguinalis); assay: Test B preemergence
Procedure, shortened: as §3

rice (Oryza saliva) = assay: Test B preemergence
Procedure, shortened: as §3

[14] = system: pigweed (Amaranthus retroflexus); assay: Test B preemergence
Procedure, shortened: as §3

[15] = system: lambsquarters (Chenopodium album); assay: Test B preemergence
Procedure, shortened: as §3

[16] = system: cocklebur (Xanthium strumarium); assay: Test B preemergence
Procedure, shortened: as §3

[17] = system: giant foxtail (Setaria faberii); assay: Test B preemergence
Procedure, shortened: as §3

[18] = system: morning glory (Ipomoea hederacea); assay: Test B preemergence
Procedure, shortened: as §3

corn (Zea mays) = assay: Test B preemergence
Procedure, shortened: as §3

Sunflower = assay: Test C preemergence; details: Rate 500 g/ha, visual evaluation after 12 to 14 days
[19] = Rate 500 g/ha, visual evaluation after 12 to 14 days
[20] = Preemergence, Rate 500 g/ha, scale 0 to 100, 0 no effect, 100 complete control
[21] = preemergence, Rate 125 g/ha, scale of 0 to 100 where 0 is no effect and 100 is complete control, 13 to 15 days

CC1(c2ccn(C3SCN(c4cccc(C(F)(F)F)c4)C3=O)n2)CC1 (stereo not drawn) [Compound 64]
Plant response rating, Surinam grass ([1]; Rate 62 g/ha): 0 | Plant response rating (0 to 100), Surinam grass ([1]; preemergence, Rate 250 g/ha): 90 | Plant response rating (0 to 100), Surinam grass ([1]; preemergence, Rate 500 g/ha): 100 | Plant response rating, Surinam grass ([1]; preemergence, Rate 125 g/ha): 50 | Plant response rating, Goosegrass ([2]; Rate 62 g/ha): 100 | Plant response rating (0 to 100), Goosegrass ([2]; preemergence, Rate 250 g/ha): 100 | Plant response rating (0 to 100), Goosegrass ([2]; preemergence, Rate 500 g/ha): 100 | Plant response rating, Goosegrass ([2]; preemergence, Rate 125 g/ha): 100 | Plant response rating (0 to 100), Velvetleaf [3, 19]: 50 | Plant response rating, Velvetleaf ([3]; Rate 125 g/ha): 0 | Plant response rating, Velvetleaf ([3]; Rate 250 g/ha): 20 | Plant response rating, Crabgrass ([4]; Rate 62 g/ha): 100 | Plant response rating (0 to 100), Crabgrass ([4]; preemergence, Rate 250 g/ha): 100 | Plant response rating (0 to 100), Crabgrass ([4]; preemergence, Rate 500 g/ha): 100 | Plant response rating, Crabgrass ([4]; preemergence, Rate 125 g/ha): 100 | Plant response rating, Cocklebur ([5]; Rate 62 g/ha): 0 | Plant response rating (0 to 100), Cocklebur ([5]; preemergence, Rate 250 g/ha): 20 | Plant response rating (0 to 100), Cocklebur ([5]; preemergence, Rate 500 g/ha): 30 | Plant response rating, Cocklebur ([5]; preemergence, Rate 125 g/ha): 0 | Plant response rating, Foxtail, Giant ([6]; Rate 62 g/ha): 0 | Plant response rating (0 to 100), Foxtail, Giant ([6]; preemergence, Rate 250 g/ha): 100 | Plant response rating (0 to 100), Foxtail, Giant ([6]; preemergence, Rate 500 g/ha): 30 | Plant response rating, Foxtail, Giant ([6]; preemergence, Rate 125 g/ha): 50 | Plant response rating, Bermudagrass ([7]; Rate 62 g/ha): 100 | Plant response rating (0 to 100 where 0 is no effect and 100 is complete control), Bermudagrass ([7]; preemergence, Rate 250 g/ha): 100 | Plant response rating (0 to 100 where 0 is no effect and 100 is complete control), Bermudagrass ([7]; preemergence, Rate 500 g/ha): 100 | Plant response rating, Bermudagrass ([7]; preemergence, Rate 125 g/ha): 100 | Plant response rating (0 to 100), Ragweed, Common [8, 19]: 90 | Plant response rating, Ragweed, Common ([8]; Rate 125 g/ha): 50 | Plant response rating, Ragweed, Common ([8]; Rate 250 g/ha): 80 | Plant response rating, Morningglory ([9]; Rate 62 g/ha): 40 | Plant response rating (0 to 100), Morningglory ([9]; preemergence, Rate 500 g/ha, visual evaluation after 12 to 14 days): 60 | Plant response rating, Morningglory ([9]; preemergence, Rate 125 g/ha): 40 | Plant response rating, Morningglory ([9]; preemergence, Rate 250 g/ha): 40 | Plant response rating, Surinam grass [10, 20]: 60 | Plant response rating, Surinam grass [10, 21]: 30 | Plant response rating, Barnyardgrass [11, 20]: 90 | Plant response rating, Barnyardgrass [11, 21]: 50 | Plant response rating, Velvetleaf [12, 20]: 0 | Plant response rating, Velvetleaf [12, 21]: 0 | Plant response rating, Crabgrass [13, 20]: 100 | Plant response rating, Crabgrass [13, 21]: 40 | Plant response rating, Rice (rice (Oryza saliva); [20]): 0 | Plant response rating, Rice (rice (Oryza saliva); [21]): 0 | Plant response rating, Pigweed [14, 20]: 100 | Plant response rating, Pigweed [14, 21]: 100 | Plant response rating, Lambsquarters [15, 20]: 100 | Plant response rating, Lambsquarters [15, 21]: 100 | Plant response rating, Cocklebur [16, 20]: 10 | Plant response rating, Cocklebur [16, 21]: 0 | Plant response rating, Foxtail, Giant [17, 20]: 90 | Plant response rating, Foxtail, Giant [17, 21]: 0 | Plant response rating, Morningglory [18, 20]: 10 | Plant response rating, Morningglory [18, 21]: 0 | Plant response rating, Corn (corn (Zea mays); [20]): 20 | Plant response rating, Corn (corn (Zea mays); [21]): 0 | Plant response rating (0 to 100), Sunflower (Sunflower): 60
